Data published in the supplement of paper PMC10307832.

Key:
Experiment in all cases: relative viability (nuclei count vs DMSO), 5 days (fraction); higher = more cells survive
Wnt-C59 + OSI-027 = compound: CC1=NC=CC(=C1)C2=CC=C(C=C2)CC(=O)NC3=CC=C(C=C3)C4=CN=CC=C4 [Wnt-C59] + COc1cccc2cc(-c3nc([C@H]4CC[C@H](C(=O)O)CC4)n4ncnc(N)c34)[nH]c12 [OSI-027] (partner 0.5 µM)
Method in brief: (§1)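 Five library-drug doses in √10 steps were combined with a fixed anchor-drug dose, or a single drug was given alone, by pin tool to lung cancer cell lines in 1536-well plates the day after seeding. Nuclei were stained and counted after 5 days. Relative viability is the nuclei count in treated wells over that in vehicle wells, taken as the median of duplicate plates.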

Lapatinib + Palbociclib = compound: CS(=O)(=O)CCNCc1ccc(-c2ccc3ncnc(Nc4ccc(OCc5cccc(F)c5)c(Cl)c4)c3c2)o1 [Lapatinib] + CC(=O)c1c(C)c2cnc(Nc3ccc(N4CCNCC4)cn3)nc2n(C2CCCC2)c1=O [Palbociclib] (partner 0.5 µM)
Method in brief: as §1

Wnt-C59 + Linsitinib = compound: CC1=NC=CC(=C1)C2=CC=C(C=C2)CC(=O)NC3=CC=C(C=C3)C4=CN=CC=C4 [Wnt-C59] + C[C@]1(O)C[C@@H](c2nc(-c3ccc4ccc(-c5ccccc5)nc4c3)c3c(N)nccn32)C1 [Linsitinib] (partner 1 µM)
Method in brief: as §1

Lapatinib + Linsitinib = compound: CS(=O)(=O)CCNCc1ccc(-c2ccc3ncnc(Nc4ccc(OCc5cccc(F)c5)c(Cl)c4)c3c2)o1 [Lapatinib] + C[C@]1(O)C[C@@H](c2nc(-c3ccc4ccc(-c5ccccc5)nc4c3)c3c(N)nccn32)C1 [Linsitinib] (partner 1 µM)
Method in brief: as §1

Cell Line	relative viability (Wnt-C59 + OSI-027; first compound 0.001 µM)	relative viability (Wnt-C59 + OSI-027; first compound 0.01 µM)	relative viability (Wnt-C59 + OSI-027; first compound 0.03162 µM)	relative viability (Wnt-C59 + OSI-027; first compound 0.1 µM)	relative viability (Lapatinib + Palbociclib; first compound 0.02 µM)	relative viability (Lapatinib + Palbociclib; first compound 0.06325 µM)	relative viability (Lapatinib + Palbociclib; first compound 0.2 µM)	relative viability (Lapatinib + Palbociclib; first compound 0.6325 µM)	relative viability (Lapatinib + Palbociclib; first compound 2 µM)	relative viability (Wnt-C59 + Linsitinib; first compound 0.001 µM)	relative viability (Wnt-C59 + Linsitinib; first compound 0.01 µM)	relative viability (Wnt-C59 + Linsitinib; first compound 0.03162 µM)	relative viability (Wnt-C59 + Linsitinib; first compound 0.1 µM)	relative viability (Lapatinib + Linsitinib; first compound 0.02 µM)	relative viability (Lapatinib + Linsitinib; first compound 0.06325 µM)	relative viability (Lapatinib + Linsitinib; first compound 0.2 µM)	relative viability (Lapatinib + Linsitinib; first compound 0.6325 µM)	relative viability (Lapatinib + Linsitinib; first compound 2 µM)
201T	0.717	0.725	0.761	0.627	0.358	0.309	0.339	0.338	0.342	1.02	1.04	1.06	1.04	0.96	0.92	1	1.04	0.909
A549	–	–	–	–	–	–	–	–	–	0.568	0.498	0.555	0.504	–	0.433	0.555	0.473	0.425
A-427	0.479	0.457	0.478	0.503	0.544	0.518	0.526	0.524	0.483	1.12	1.05	1.14	1.06	–	1.05	1.11	1.17	1.14
ABC-1	0.441	0.597	0.435	0.389	0.71	0.487	–	0.533	0.787	0.909	0.759	0.774	0.702	–	0.813	0.871	0.773	0.504
BEN	0.256	0.309	0.306	0.305	0.455	0.469	0.472	0.432	0.468	0.915	0.948	1.02	0.88	0.91	0.858	0.878	0.769	0.8
CAL-12T	0.871	0.611	0.856	0.654	0.197	0.304	0.319	0.329	0.137	0.759	0.752	0.776	0.766	0.761	0.83	0.634	0.725	0.579
COR-L23	0.763	0.701	0.954	0.735	0.248	0.298	0.342	0.297	0.279	1	0.893	1.08	0.837	0.955	0.87	0.986	0.945	0.875
COR-L 105	0.916	0.696	0.635	0.632	0.418	0.387	0.352	0.407	0.338	1.26	0.988	0.765	0.804	0.796	0.772	0.954	0.703	0.272
Calu-6	–	–	–	–	–	–	–	–	–	0.89	0.9	0.987	0.955	0.891	0.953	0.947	0.954	0.848
ChaGo-K-1	0.512	0.569	0.525	0.563	0.868	0.9	0.939	0.909	0.912	–	–	–	–	–	–	–	–	–
EBC-1	–	–	–	–	–	–	–	–	–	0.927	0.912	0.925	0.814	0.904	0.883	0.888	0.938	0.886
EKVX	0.728	0.574	0.648	0.565	–	0.337	0.265	0.22	0.145	1.07	0.846	1.01	0.757	0.922	0.757	0.956	0.579	0.179
EMC-BAC-2	0.377	0.36	0.366	0.387	–	0.459	0.524	0.536	0.539	0.736	0.642	0.741	0.709	0.755	0.732	0.698	0.623	0.563
EPLC-272H	0.345	0.231	0.332	0.236	–	0.288	0.291	0.299	0.261	1.29	1.23	1.08	1.15	–	0.988	1.11	0.959	1.01
H3255	0.683	0.58	0.685	0.545	0.334	0.291	0.308	0.291	0.283	1.01	0.962	1.02	0.866	0.92	0.767	0.783	0.693	0.196
HARA	0.478	0.337	0.64	0.518	0.194	0.195	0.202	0.233	0.224	1.02	0.865	1.16	0.899	0.782	0.686	0.808	0.755	0.243
HCC-15	0.641	0.718	0.647	0.752	–	0.68	0.734	0.652	0.584	0.922	0.96	0.856	0.928	–	0.857	0.954	0.814	0.599
HCC-44	0.768	0.671	0.538	0.608	0.995	1.01	0.976	1.05	0.823	0.745	0.641	0.665	0.644	0.709	0.648	0.628	0.627	0.493
HCC-78	0.389	0.364	0.366	0.411	–	0.453	0.49	0.467	0.506	0.507	0.498	0.576	0.584	–	0.383	0.461	0.441	0.448
HCC-366	0.774	0.542	1.02	1.04	–	0.334	0.339	0.356	0.323	0.697	0.582	0.717	0.595	–	0.404	0.702	0.746	0.472
